Consider 25 molecules from patent US20150105429A1, “BENZYL SULFONAMIDE DERIVATIVES AS RORC MODULATORS” (Genentech, Inc., priority 2011, published 2015).

This experiment deals with T1, RORc ligand binding domain (Homo sapiens, UniProt P51449).
T1 construct: host or cells: E. coli
T1 sequence (P51449 269-508 limits assumed): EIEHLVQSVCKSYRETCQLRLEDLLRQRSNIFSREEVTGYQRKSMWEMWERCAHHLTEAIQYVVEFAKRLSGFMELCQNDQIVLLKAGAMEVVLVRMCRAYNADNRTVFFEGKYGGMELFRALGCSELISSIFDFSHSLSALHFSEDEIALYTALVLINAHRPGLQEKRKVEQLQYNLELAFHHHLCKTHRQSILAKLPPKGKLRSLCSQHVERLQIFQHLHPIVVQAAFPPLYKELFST
Put plainly: In Vitro RORc Ligand Binding Assay. To be noted: radioligand 25-[3H]hydroxycholesterol 6 nM; 0.6 ug/mL RORc receptor; 3 h at 25° C.; read-out: IC50 values (micromolar) for RORc affinity. As to the method:
This assay was used to determine a compound's potency in inhibiting activity of RORc by determining, Kiapp, IC50, or percent inhibition values.
On day of the assay, 100 uL of 0.05% CHAPS (in deionized H2O) was added to all wells of the GFB Unifilter plate and allowed soak for 1 h. A wash buffer of 50 mM HEPES (pH 7.4), 150 mM NaCl, and 5 mM MgCl2 was prepared to wash the filter plate. To prepare an assay buffer, BSA was added to the wash buffer to reach 0.01% and DTT was added to reach 1 mM.
The 20× compound stocks were diluted in DMSO with Assay Buffer 4-fold to reach 5× the final test concentration in 25% DMSO (10 uL compound+30 uL Assay Buffer). Solutions were mixed by aspiration several times with a pipette set on 50 uL volume. For the assay, 10 uL of 5× compound stock solutions in 25% DMSO were added to the assay plate in duplicate.
For two point screening, 10 mM stock compound solutions were diluted in DMSO to obtain 200 uM (20× the high test concentration) and then diluted 10-fold further to reach 20 uM (20× the low test concentration). The 20× stocks were diluted 4-fold with Assay Buffer (10 uL compound+30 uL Assay Buffer) to reach 5× the test concentrations (50 uM and 5 uM) and 10 uL were added to two assay plates for the duplicate wells. With each concentration tested on 2 plates, each set of 80 compounds used 4 assay plates (1 uM and 10 uM, with n=2).
For 25-hydroxycholesterol in 25% DMSO/75% Assay Buffer; 10 uL per well was used for NSB samples. Wells for Total Binding and No Receptor sample determination contained 10 uL of 25% DMSO/75% Assay Buffer per well.
Radioligand (25-[^3H]hydroxycholesterol) Preparation
Added 20 uL to all wells to reach 6 nM final in the assay.
Stock receptor solution was diluted in assay buffer to obtain 1.5 ug/mL in Assay Buffer. 20 uL was added to all wells. For No R samples, 20 uL Assay Buffer was substituted for receptor solution.
Assay plates were 96-well polypropylene V-bottom plates. 10 uL of 5× compound in 25% DMSO/75% Assay Buffer was added to Test wells. 10 uL of 25% DMSO/75% Assay Buffer was added to Total Binding or No Receptor wells. 10 uL of 5 uM 25-hydroxycholesterol in 25% DMSO/75% Assay Buffer was added to NSB wells. […] 20 uL of 1.5 ug/mL RORc receptor was added to wells (or 40 uL Assay Buffer to No R wells). Following addition to the wells, the plates were incubated 3 h at 25° C.
Using a Packard Filtermate Harvester, the filter plates were washed 4 times following transfer of the incubated samples. Plates were dry-filtered completely (2 h at 50° C. or overnight at room temperature). 50 uL Microscint 0 was added to all wells and read on Topcount protocol Inverted.
Final concentrations were as follows: 50 mM HEPES buffer (pH 7.4); 150 mM NaCl; 1 mM DTT; 5 mM MgCl2; 0.01% BSA; 5% DMSO; 0.6 ug/mL RORc receptor; 6 nM 25-[^3H]hydroxycholesterol. For NSB wells, 1 uM 25-hydroxycholesterol was also present.

`CC(C)CN(Cc1ccc(-c2cccnc2)s1)S(=O)(=O)Cc1ccccc1` [Compound 37, N-Isobutyl-C-phenyl-N-(5-pyridin-3-yl-thiophen-2-ylmethyl)-methanesulfonamide]: the IC50 is 1.7 µM.
The result for `CC(C)CN(Cc1ccc(-c2ccncc2)s1)S(=O)(=O)Cc1ccccc1` [Compound 38, N-Isobutyl-C-phenyl-N-(5-pyridin-4-yl-thiophen-2-ylmethyl)-methanesulfonamide] reads 0.614 µM.
With `CC(C)CN(Cc1ccc(-c2cccc(C(N)=O)c2)s1)S(=O)(=O)Cc1ccccc1` [Compound 41, 3-{5-[(Isobutyl-phenylmethanesulfonyl-amino)-methyl]-thiophen-2-yl}-benzamide] the figure was 1.4 µM; with `CC(C)CN(Cc1ccc(-c2cccc(C(=O)N(C)C)c2)s1)S(=O)(=O)Cc1ccccc1` [Compound 43, 3-{5-[(Isobutyl-phenylmethanesulfonyl-amino)-methyl]-thiophen-2-yl}-N,N-dimethyl-benzamide], 2.4 µM; with `CC(C)CN(Cc1ccc(-c2cncc(S(C)(=O)=O)c2)s1)S(=O)(=O)Cc1ccccc1` [Compound 44, N-Isobutyl-N-[5-(5-methanesulfonyl-pyridin-3-yl)-thiophen-2-ylmethyl]-C-phenyl-methanesulfonamide], 2.5 µM.
With `CC(C)CN(Cc1ccc(-c2cnn(C)c2)s1)S(=O)(=O)Cc1ccccc1` [Compound 45, N-Isobutyl-N-[5-(1-methyl-1H-pyrazol-4-yl)-thiophen-2-ylmethyl]-C-phenyl-methanesulfonamide] the figure was 0.612 µM; with `CC(C)CN(Cc1ccc(-c2ccnc(N)c2)s1)S(=O)(=O)Cc1ccccc1` [Compound 46, N-[5-(2-Amino-pyridin-4-yl)-thiophen-2-ylmethyl]-N-isobutyl-C-phenyl-methanesulfonamide], 1.2 µM; with `Cc1n[nH]c(C)c1-c1ccc(CN(CC(C)C)S(=O)(=O)Cc2ccccc2)s1` [Compound 49, N-[5-(3,5-Dimethyl-1H-pyrazol-4-yl)-thiophen-2-ylmethyl]-N-isobutyl-C-phenyl-methanesulfonamide], 0.377 µM.
Take `CC(C)CN(Cc1ccc(-c2cncc(C#N)c2)s1)S(=O)(=O)Cc1ccccc1` [Compound 50, N-[5-(5-Cyano-pyridin-3-yl)-thiophen-2-ylmethyl]-N-isobutyl-C-phenyl-methanesulfonamide]: the IC50 stood at 3.1 µM.
Consider `CNC(=O)c1ccc(-c2ccc(CN(CC(C)C)S(=O)(=O)Cc3ccccc3)s2)cn1` [Compound 51, 5-{5-[(Isobutyl-phenylmethanesulfonyl-amino)-methyl]-thiophen-2-yl}-pyridine-2-carboxylic acid methylamide], for which the IC50 was found to be 4.4 µM.
The result for `CC(=O)Nc1ccc(-c2ccc(CN(CC(C)C)S(=O)(=O)Cc3ccccc3)s2)cn1` [Compound 52, N-(5-{5-[(Isobutyl-phenylmethanesulfonyl-amino)-methyl]-thiophen-2-yl}-pyridin-2-yl)-acetamide] reads 3 µM; that for `CC(C)N(Cc1ccc(-c2ccc(S(C)(=O)=O)cc2)s1)S(=O)(=O)Cc1ccccc1` [Compound 56, N-Isopropyl-N-[5-(4-methanesulfonyl-phenyl)-thiophen-2-ylmethyl]-C-phenyl-methanesulfonamide], 0.195 µM; that for `COCCN(Cc1ccc(-c2ccc(S(C)(=O)=O)cc2)s1)S(=O)(=O)Cc1ccccc1` [Compound 57, N-[5-(4-Methanesulfonyl-phenyl)-thiophen-2-ylmethyl]-N-(2-methoxy-ethyl)-C-phenyl-methanesulfonamide], 5.1 µM.
The result for `CCN(Cc1ccc(-c2ccc(S(C)(=O)=O)cc2)s1)S(=O)(=O)Cc1ccccc1` [Compound 58, N-Ethyl-N-[5-(4-methanesulfonyl-phenyl)-thiophen-2-ylmethyl]-C-phenyl-methanesulfonamide] reads 3.1 µM; that for `CC(C)CN(Cc1cc(-c2ccc(S(C)(=O)=O)cc2)cs1)S(=O)(=O)Cc1ccccc1` [Compound 59, N-Isobutyl-N-[4-(4-methanesulfonyl-phenyl)-thiophen-2-ylmethyl]-C-phenyl-methanesulfonamide], 0.278 µM.
With `CC(C)CN(Cc1ccc(-c2cccc(S(C)(=O)=O)c2)s1)S(=O)(=O)C1CCCC1` [Compound 60, Cyclopentanesulfonic acid isobutyl-[5-(3-methanesulfonyl-phenyl)-thiophen-2-ylmethyl]-amide] the figure was 1.8 µM.
`Cc1nn(C)c(C)c1S(=O)(=O)N(Cc1ccc(-c2cccc(S(C)(=O)=O)c2)s1)CC(C)C` [Compound 61, 1,3,5-Trimethyl-1H-pyrazole-4-sulfonic acid isobutyl-[5-(3-methanesulfonyl-phenyl)-thiophen-2-ylmethyl]-amide]: the concentration for half-maximal inhibition (IC50) came out at 3.6 µM.
`CC(C)CN(Cc1ccc(-c2cccc(S(C)(=O)=O)c2)s1)S(=O)(=O)c1cccnc1` [Compound 62, Pyridine-3-sulfonic acid isobutyl-[5-(3-methanesulfonyl-phenyl)-thiophen-2-ylmethyl]-amide]: the IC50 was 4.2 µM.
For `CC(C)CN(Cc1ccc(-c2cc(F)c(CO)c(S(C)(=O)=O)c2)s1)S(=O)(=O)Cc1ccccc1` [Compound 63, N-((5-(3-fluoro-4-(hydroxymethyl)-5-(methylsulfonyl)phenyl)thiophen-2-yl)methyl)-N-isobutyl-1-phenylmethanesulfonamide], the IC50 was found to be 5 µM.
For the molecule `CC(C)CN(Cc1ncc(-c2ccc(S(C)(=O)=O)c(F)c2)s1)S(=O)(=O)Cc1ccccc1` [Compound 64, N-((5-(3-fluoro-4-(methylsulfonyl)phenyl)thiazol-2-yl)methyl)-N-isobutyl-1-phenylmethanesulfonamide], the 50% inhibitory concentration (IC50) amounted to 2 µM.
Take `CC(C)CN(Cc1ccc(-c2ccc(S(C)(=O)=O)cc2)cn1)S(=O)(=O)Cc1ccccc1` [Compound 65, N-isobutyl-N-((5-(4-(methylsulfonyl)phenyl)pyridin-2-yl)methyl)-1-phenylmethanesulfonamide]: the half-maximal inhibitory concentration (IC50) was determined as 2 µM.
Take `CC(C)CN(Cc1ccc(-c2ccc(S(C)(=O)=O)cc2)nc1)S(=O)(=O)Cc1ccccc1` [Compound 66, N-isobutyl-N-((6-(4-(methylsulfonyl)phenyl)pyridin-3-yl)methyl)-1-phenylmethanesulfonamide]: the IC50 is 0.77 µM.
For `CC(C)CN(Cc1cccc(-c2cccc(S(C)(=O)=O)c2)c1)S(=O)(=O)Cc1ccccc1` [Compound 67, N-isobutyl-N-((3′-(methylsulfonyl)-[1,1′-biphenyl]-3-yl)methyl)-1-phenylmethanesulfonamide], the concentration for half-maximal inhibition (IC50) worked out at 3 µM.
Turning to `CC(C)CN(Cc1csc(-c2ccc(S(C)(=O)=O)cc2)c1)S(=O)(=O)Cc1ccccc1` [Compound 68, N-isobutyl-N-((5-(4-(methylsulfonyl)phenyl)thiophen-3-yl)methyl)-1-phenylmethanesulfonamide], the IC50 amounted to 0.32 µM.
With `CC(C)CN(Cc1ccc(-c2ccc(S(C)(=O)=O)cc2)c(C#N)c1)S(=O)(=O)Cc1ccccc1` [Compound 69, N-((2-cyano-4′-(methylsulfonyl)-[1,1′-biphenyl]-4-yl)methyl)-N-isobutyl-1-phenylmethanesulfonamide] the figure was 0.074 µM.
